Laboratory results from paper PMC10176470, “Engaging a Non-catalytic Cysteine Residue Drives Potent and Selective Inhibition of Caspase-6” (Journal of the American Chemical Society, 2023).

Experiments:
Test in all cases: SILAC proteomics / in-gel fluorescence, competition of probe 13-t labeling by 3a
[1] = target: proteins of HEK293T cells transiently overexpressing caspase-6 (Homo sapiens, UniProt Q15233); details: Comp; protein NONO Q15233
[2] = target: proteins of HEK293T cells transiently overexpressing caspase-6 (Homo sapiens, UniProt P12268)
[3] = target: T1, proteins of HEK293T cells transiently overexpressing caspase-6 (Homo sapiens, UniProt O00567)
T1 sequence (O00567 1-594): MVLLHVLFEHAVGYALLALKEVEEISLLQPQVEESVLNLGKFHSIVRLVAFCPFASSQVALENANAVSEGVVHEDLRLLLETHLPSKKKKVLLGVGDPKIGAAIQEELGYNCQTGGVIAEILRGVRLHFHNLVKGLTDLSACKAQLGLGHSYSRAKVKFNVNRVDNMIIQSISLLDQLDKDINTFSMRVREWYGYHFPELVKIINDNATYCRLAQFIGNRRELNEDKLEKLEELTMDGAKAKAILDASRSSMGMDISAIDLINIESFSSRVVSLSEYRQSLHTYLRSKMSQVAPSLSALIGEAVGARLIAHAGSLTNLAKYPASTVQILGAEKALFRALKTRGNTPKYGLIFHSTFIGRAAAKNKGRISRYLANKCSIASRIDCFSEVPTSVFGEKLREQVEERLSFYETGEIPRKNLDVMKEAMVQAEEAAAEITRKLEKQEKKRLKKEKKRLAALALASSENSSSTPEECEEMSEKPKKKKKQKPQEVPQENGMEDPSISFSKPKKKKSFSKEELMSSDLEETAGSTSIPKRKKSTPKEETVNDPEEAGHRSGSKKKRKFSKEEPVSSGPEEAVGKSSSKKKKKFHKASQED

[4] = target: proteins of HEK293T cells transiently overexpressing caspase-6 (Homo sapiens, UniProt P13804); details: Comp; protein ETFA P13804
[5] = target: proteins of HEK293T cells transiently overexpressing caspase-6 (Homo sapiens, UniProt P31939); details: Comp; protein ATIC P31939
[6] = target: proteins of HEK293T cells transiently overexpressing caspase-6 (Homo sapiens, UniProt O00299); details: Comp; protein CLIC1 O00299
[7] = target: proteins of HEK293T cells transiently overexpressing caspase-6 (Homo sapiens, UniProt Q07020); details: Comp; protein RPL18 Q07020
[8] = target: proteins of HEK293T cells transiently overexpressing caspase-6 (Homo sapiens, UniProt Q07666); details: Comp; protein KHDRBS1 Q07666
[9] = target: proteins of HEK293T cells transiently overexpressing caspase-6 (Homo sapiens, UniProt P46779); details: Comp; protein RPL28 P46779
[10] = target: proteins of HEK293T cells transiently overexpressing caspase-6 (Homo sapiens, UniProt P62424); details: Comp; protein RPL7A P62424
[11] = target: proteins of HEK293T cells transiently overexpressing caspase-6 (Homo sapiens, UniProt P62826); details: Comp; protein RAN P62826
[12] = target: proteins of HEK293T cells transiently overexpressing caspase-6 (Homo sapiens, UniProt P42704); details: Comp; protein LRPPRC P42704
[13] = target: proteins of HEK293T cells transiently overexpressing caspase-6 (Homo sapiens, UniProt O14980); details: Comp; protein XPO1 O14980
[14] = target: proteins of HEK293T cells transiently overexpressing caspase-6 (Homo sapiens, UniProt Q14204)
[15] = target: proteins of HEK293T cells transiently overexpressing caspase-6 (Homo sapiens, UniProt P05141); details: Comp; protein SLC25A5 P05141
[16] = target: proteins of HEK293T cells transiently overexpressing caspase-6 (Homo sapiens, UniProt P11388); details: Comp; protein TOP2A P11388
[17] = target: proteins of HEK293T cells transiently overexpressing caspase-6 (Homo sapiens, UniProt Q04637); details: Comp; protein EIF4G1 Q04637
[18] = protein IMPDH2 (P12268), Exp Comp, analysis C6, p 0.0078, 8 peptides
[19] = protein NOP56 (O00567), Exp Comp, analysis C6, p 0.1250, 4 peptides
[20] = protein DYNC1H1 (Q14204), Exp Comp, analysis C6, p 0.1250, 4 peptides

Sequence of proteins of HEK293T cells transiently overexpressing caspase-6 (Homo sapiens, UniProt Q14204) (Q14204 whole entry): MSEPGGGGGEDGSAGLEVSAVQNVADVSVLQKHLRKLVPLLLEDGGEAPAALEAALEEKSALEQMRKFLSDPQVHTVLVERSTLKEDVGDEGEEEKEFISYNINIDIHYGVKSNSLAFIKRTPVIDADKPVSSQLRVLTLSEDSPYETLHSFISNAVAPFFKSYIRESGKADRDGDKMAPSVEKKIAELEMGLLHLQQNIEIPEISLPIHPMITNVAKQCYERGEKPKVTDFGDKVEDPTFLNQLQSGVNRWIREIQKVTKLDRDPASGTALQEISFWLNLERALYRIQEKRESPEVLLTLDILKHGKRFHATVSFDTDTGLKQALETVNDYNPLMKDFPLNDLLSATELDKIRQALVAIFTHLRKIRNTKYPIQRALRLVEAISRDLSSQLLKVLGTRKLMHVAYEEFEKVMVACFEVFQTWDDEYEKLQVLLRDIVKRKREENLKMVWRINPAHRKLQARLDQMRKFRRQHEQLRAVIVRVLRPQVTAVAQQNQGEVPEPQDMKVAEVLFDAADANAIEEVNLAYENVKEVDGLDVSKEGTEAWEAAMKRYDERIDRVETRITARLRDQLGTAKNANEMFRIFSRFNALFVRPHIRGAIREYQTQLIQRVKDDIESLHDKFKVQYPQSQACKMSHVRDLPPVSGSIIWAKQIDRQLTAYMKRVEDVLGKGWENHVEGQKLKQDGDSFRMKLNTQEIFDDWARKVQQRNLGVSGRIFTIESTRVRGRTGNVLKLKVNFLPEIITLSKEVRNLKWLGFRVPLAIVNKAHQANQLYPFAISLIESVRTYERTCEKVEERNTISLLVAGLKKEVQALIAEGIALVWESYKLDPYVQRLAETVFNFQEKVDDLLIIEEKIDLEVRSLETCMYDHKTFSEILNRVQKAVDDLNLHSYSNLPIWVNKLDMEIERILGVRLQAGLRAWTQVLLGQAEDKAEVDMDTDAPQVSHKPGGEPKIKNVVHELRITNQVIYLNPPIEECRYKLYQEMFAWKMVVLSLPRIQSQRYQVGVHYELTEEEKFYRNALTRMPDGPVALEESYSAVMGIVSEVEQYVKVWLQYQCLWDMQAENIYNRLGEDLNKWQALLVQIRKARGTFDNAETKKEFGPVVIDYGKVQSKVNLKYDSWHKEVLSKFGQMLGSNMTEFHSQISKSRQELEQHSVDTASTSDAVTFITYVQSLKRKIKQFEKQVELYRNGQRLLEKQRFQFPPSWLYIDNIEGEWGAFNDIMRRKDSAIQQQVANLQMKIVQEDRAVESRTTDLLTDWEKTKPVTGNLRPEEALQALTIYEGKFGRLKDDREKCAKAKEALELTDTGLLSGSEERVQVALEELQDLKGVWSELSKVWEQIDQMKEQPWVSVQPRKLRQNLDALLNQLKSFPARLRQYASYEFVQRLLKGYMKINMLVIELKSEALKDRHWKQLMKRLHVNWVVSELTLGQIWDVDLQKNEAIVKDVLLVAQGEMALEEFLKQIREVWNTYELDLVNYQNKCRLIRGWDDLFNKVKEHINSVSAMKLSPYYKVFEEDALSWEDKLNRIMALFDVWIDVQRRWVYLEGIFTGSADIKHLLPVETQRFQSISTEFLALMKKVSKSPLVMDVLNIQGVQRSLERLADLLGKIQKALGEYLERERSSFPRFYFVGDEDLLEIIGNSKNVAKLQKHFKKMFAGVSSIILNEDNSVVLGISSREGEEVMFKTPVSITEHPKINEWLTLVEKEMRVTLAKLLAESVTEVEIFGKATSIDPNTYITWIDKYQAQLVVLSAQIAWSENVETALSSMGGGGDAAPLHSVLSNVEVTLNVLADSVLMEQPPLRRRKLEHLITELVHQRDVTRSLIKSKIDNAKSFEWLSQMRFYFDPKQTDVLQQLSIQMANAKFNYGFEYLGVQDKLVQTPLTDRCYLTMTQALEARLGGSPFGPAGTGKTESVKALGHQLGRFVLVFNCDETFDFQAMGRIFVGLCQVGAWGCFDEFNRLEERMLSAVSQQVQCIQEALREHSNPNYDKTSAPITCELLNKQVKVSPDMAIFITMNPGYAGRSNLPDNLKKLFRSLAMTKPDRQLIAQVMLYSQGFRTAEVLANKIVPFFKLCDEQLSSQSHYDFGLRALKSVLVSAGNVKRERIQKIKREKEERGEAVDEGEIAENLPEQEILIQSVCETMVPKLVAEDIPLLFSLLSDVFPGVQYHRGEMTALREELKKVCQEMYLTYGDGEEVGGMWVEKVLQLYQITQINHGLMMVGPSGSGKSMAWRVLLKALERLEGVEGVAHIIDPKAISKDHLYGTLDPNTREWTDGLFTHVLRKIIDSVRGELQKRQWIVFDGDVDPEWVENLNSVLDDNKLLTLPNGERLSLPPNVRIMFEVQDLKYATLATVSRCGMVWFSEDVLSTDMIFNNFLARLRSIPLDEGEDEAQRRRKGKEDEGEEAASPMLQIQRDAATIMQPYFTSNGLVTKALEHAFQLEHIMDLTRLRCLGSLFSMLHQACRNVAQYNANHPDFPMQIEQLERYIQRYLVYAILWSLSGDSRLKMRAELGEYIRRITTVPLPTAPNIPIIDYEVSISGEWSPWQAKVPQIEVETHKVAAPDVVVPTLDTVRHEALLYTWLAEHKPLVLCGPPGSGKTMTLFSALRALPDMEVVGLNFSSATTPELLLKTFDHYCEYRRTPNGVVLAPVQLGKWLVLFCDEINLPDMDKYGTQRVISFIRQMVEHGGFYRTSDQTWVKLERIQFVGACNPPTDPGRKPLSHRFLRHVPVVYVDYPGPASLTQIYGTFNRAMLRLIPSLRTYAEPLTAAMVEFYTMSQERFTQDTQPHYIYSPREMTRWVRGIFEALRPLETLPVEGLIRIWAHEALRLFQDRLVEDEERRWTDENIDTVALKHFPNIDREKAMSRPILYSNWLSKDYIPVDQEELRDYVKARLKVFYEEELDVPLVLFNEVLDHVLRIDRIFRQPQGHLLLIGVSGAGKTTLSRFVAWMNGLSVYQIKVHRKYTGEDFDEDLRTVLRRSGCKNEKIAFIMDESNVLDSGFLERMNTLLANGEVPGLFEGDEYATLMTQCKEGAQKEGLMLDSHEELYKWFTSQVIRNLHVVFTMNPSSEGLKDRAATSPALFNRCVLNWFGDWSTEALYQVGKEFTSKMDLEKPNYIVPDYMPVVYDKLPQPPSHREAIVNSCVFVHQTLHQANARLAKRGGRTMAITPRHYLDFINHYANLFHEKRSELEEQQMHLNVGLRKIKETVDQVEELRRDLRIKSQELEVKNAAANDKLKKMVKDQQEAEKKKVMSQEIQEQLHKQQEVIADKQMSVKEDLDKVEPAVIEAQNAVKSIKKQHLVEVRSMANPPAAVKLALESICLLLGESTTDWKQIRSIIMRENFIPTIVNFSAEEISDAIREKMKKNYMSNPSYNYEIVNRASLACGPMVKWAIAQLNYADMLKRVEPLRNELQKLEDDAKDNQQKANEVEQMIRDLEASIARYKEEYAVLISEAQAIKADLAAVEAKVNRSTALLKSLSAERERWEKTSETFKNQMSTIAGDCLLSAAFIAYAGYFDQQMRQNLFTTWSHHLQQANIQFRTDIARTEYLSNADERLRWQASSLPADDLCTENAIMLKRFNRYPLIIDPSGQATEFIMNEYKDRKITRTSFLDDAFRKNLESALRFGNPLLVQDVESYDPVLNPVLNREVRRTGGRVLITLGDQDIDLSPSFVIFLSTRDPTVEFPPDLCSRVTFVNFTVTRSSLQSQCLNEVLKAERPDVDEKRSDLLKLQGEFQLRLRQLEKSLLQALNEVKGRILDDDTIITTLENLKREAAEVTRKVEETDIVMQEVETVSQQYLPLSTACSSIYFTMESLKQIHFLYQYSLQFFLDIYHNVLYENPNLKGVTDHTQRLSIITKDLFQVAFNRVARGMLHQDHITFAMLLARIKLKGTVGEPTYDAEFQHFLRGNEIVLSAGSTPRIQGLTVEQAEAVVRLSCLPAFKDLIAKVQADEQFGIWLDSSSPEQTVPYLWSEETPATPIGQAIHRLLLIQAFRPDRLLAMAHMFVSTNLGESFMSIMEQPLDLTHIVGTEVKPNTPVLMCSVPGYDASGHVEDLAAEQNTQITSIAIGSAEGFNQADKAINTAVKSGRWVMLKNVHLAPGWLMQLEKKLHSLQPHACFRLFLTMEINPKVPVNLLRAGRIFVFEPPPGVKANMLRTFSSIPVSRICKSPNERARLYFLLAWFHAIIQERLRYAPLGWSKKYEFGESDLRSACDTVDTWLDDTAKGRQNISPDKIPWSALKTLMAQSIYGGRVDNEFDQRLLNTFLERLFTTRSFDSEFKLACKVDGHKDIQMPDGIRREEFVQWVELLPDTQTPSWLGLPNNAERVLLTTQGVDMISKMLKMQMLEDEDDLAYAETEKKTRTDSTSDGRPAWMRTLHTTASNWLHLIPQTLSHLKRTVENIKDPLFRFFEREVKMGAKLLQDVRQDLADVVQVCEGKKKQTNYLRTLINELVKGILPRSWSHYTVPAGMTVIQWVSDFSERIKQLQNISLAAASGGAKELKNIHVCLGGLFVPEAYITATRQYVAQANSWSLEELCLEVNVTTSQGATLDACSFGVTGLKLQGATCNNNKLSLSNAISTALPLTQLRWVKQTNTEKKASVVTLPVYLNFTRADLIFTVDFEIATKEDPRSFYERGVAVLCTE
Sequence of proteins of HEK293T cells transiently overexpressing caspase-6 (Homo sapiens, UniProt Q07666) (Q07666 whole entry): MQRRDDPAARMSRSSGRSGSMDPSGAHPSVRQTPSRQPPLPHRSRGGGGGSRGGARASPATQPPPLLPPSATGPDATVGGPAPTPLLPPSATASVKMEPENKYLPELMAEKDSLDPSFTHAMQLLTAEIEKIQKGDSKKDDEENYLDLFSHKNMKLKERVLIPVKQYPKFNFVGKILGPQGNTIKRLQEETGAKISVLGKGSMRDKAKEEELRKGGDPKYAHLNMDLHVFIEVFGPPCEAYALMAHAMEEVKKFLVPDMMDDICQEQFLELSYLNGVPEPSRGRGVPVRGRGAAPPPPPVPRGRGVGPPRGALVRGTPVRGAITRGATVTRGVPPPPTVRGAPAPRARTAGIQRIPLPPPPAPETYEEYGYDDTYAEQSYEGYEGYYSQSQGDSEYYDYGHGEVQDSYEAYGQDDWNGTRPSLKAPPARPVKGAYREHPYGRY

Work on `C=CS(=O)(=O)N1C[C@H](C(=O)Nc2ccc(OC(F)(F)F)cc2)C[C@@H](c2ccccc2)C1` [3a] yielded an enrich.exp.med [1] of 0.6126, an enrich.exp.med ([2]; Comp, protein IMPDH2 P12268) of 0.9888 and an enrich.exp.med.lin [2, 18] of 1.985. For the same molecule, the enrich.exp.med.log2 [2, 18] was 0.9888, the enrich.exp.med ([3]; Comp, protein NOP56 O00567) was 1.117 and the enrich.exp.med.lin [3, 19] was 2.169. For the same molecule, the enrich.exp.med.log2 [3, 19] was 1.117, the enrich.exp.med [4] was 0.7888 and the enrich.exp.med [5] was 0.7149. The enrich.exp.med [6] was 0.583, the enrich.exp.med [7] was 0.6186 and the enrich.exp.med [8] was 0.748. The enrich.exp.med [9] was 0.6162, the enrich.exp.med [10] was 0.707 and the enrich.exp.med [11] was 0.6474. It also gave an enrich.exp.med [12] of 0.6677, an enrich.exp.med [13] of 0.6797 and an enrich.exp.med ([14]; Comp, protein DYNC1H1 Q14204) of 1.335. It also gave an enrich.exp.med.lin [14, 20] of 2.5227, an enrich.exp.med.log2 [14, 20] of 1.335 and an enrich.exp.med [15] of 0.6101. The enrich.exp.med [16] was 0.7274 and the enrich.exp.med [17] was 0.702.
